# Measurements reported in patent US9913820B2, “Antimicrobial compositions comprising glyceryl nitrates” (Board of Regents, The University of Texas System, priority 2012, dated 2018).
# Read-outs that look alike come from different tables or passages of the source.
# Experiments:
# [1] = system: Candida albicans (CA) biofilm; experiment: Modified Kuhns Biofilm Eradication Model (silicone discs), CA; format: cell-based; settings: for viable colonies recovered from the biofilm eradication procedure: CA, 2 hrs
# [2] = system: Pseudomonas aeruginosa (PA) biofilm; experiment: Modified Kuhns Biofilm Eradication Model (silicone discs), PA; format: cell-based; settings: for viable colonies recovered from the biofilm eradication procedure: PA, 2 hrs
# [3] = system: Methicilin resistant Staphyloccus aureus (MRSA) biofilm; experiment: Modified Kuhns Biofilm Eradication Model (silicone discs), MRSA; format: cell-based; settings: for viable colonies recovered from the biofilm eradication procedure: MRSA, 2 hrs; for GTN concentration required to eradicate MRSA: 7% citrate
# [4] = system: Staphylococcus aureus, Pseudomonas aeruginosa and Candida albicans biofilms; settings: in the presence of ethanol and citrate
# [5] = 10% ethanol and 7% citrate, FIG. 5
structure (smiles),measurement,setting,value
O=C(O)CC(O)(CC(=O)O)C(=O)O [Citrate],viable colonies recovered from the biofilm eradication procedure,[1]; component alone at 7%,2.16E+04 cfu/ml
same,eradication of mature biofilm within 2 hours (in words),"[1]; Candida Albicans, 7% alone",neither 1 mg/ml GTN nor 7% citrate alone were able to eradicate
same,viable colonies recovered from the biofilm eradication procedure,[2]; component alone at 7%,2.24E+04 cfu/ml
same,eradication of mature biofilm within 2 hours (in words),"[2]; Pseudomonas Aeruginosa, 7% alone",neither 1 mg/ml GTN nor 7% citrate alone were able to eradicate
same,viable colonies recovered from the biofilm eradication procedure,[3]; component alone at 7%,2.92E+04 cfu/ml
CCN(CC)C(=S)SSC(=S)N(CC)CC [Disulfiram],viable colonies recovered from the biofilm eradication procedure,[1]; component alone at 0.2 mg/ml,0.00E+00 cfu/ml
same,viable colonies recovered from the biofilm eradication procedure,[2]; component alone at 0.2 mg/ml,5.00E+05 cfu/ml
same,viable colonies recovered from the biofilm eradication procedure,[3]; component alone at 0.2 mg/ml,2.00E+04 cfu/ml
"O=[N+]([O-])OCC(CO[N+](=O)[O-])O[N+](=O)[O-] [GTN, glyceryl trinitrate]",eradication of mature biofilm within 2 hours (in words),[1],neither 1 mg/ml GTN nor 7% citrate alone were able to eradicate
same,GTN concentration that eradicated C. albicans,[1]; [5],0.2 mg/mL
same,viable colonies recovered from the biofilm eradication procedure,[1]; component alone at 1 mg/ml,5.00E+03 cfu/ml
same,eradication of mature biofilm within 2 hours (in words),[2],neither 1 mg/ml GTN nor 7% citrate alone were able to eradicate
same,GTN concentration that eradicated P.aeruginosa,[2]; [5],0.2 mg/mL
same,viable colonies recovered from the biofilm eradication procedure,[2]; component alone at 1 mg/ml,2.05E+03 cfu/ml
same,GTN concentration that fully eradicated MRSA,[3]; [5],0.5 mg/mL
same,GTN concentration required to eradicate MRSA,"[3]; 15% ethanol, FIG. 6",0.2 mg/mL
same,GTN concentration required to eradicate MRSA,"[3]; 20% ethanol, FIG. 7",0.1 mg/mL
same,viable colonies recovered from the biofilm eradication procedure,[3]; component alone at 1 mg/ml,5.00E+03 cfu/ml
same,GTN concentration to fully eradicate mature biofilms within 2 hours,[4],100 microgram/ml
same,reduction of GTN concentration versus what would be needed by itself,[4]; full eradication within 2 hours,10 fold
O=S(=O)(O)CCS [MesNA],viable colonies recovered from the biofilm eradication procedure,[1]; component alone at 5%,5.00E+05 cfu/ml
same,viable colonies recovered from the biofilm eradication procedure,[2]; component alone at 5%,5.00E+05 cfu/ml
same,viable colonies recovered from the biofilm eradication procedure,[3]; component alone at 5%,5.00E+05 cfu/ml
